Key:
Assay type in all cases: in vivo
[1] = test system: Cyperus difformis; test: Test Example 3: herbicidal effect by application to foliage (Wagner pot, water depth 0.1-0.5 cm); settings: Nineteenth Table; application to foliage; application herbicide amount 320 g/ha
In short: (§1)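 Alluvial soil in 1/10000 are Wagner pots, sown and grown 14 days in a 25–30 °C greenhouse. An emulsifiable concentrate diluted in water to the set dose (g/ha) was sprayed on stems and leaves. Effect scored three weeks later on a 0–5 scale: 5 = ≥90% herbicidal ratio, 0 = ≤5%.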

[2] = test system: Echinochloa crus-galli var. crus-galli; test: as above; settings: Nineteenth Table; application to foliage; application herbicide amount 320 g/ha
In short: as §1

[3] = test system: Leptochloa chinensis; test: as above; settings: Nineteenth Table; application to foliage; application herbicide amount 320 g/ha
In short: as §1

[4] = test system: directly sowed Oryza sativa; test: Test Example 3: effect on crop by application to foliage (Wagner pot, water depth 0.1-0.5 cm); settings: Nineteenth Table; application to foliage; application herbicide amount 320 g/ha
In short: as §1

[5] = test system: Abutilon theophrasti; test: Test Example 4: herbicidal effect by application to foliage (diluvial soil, plastic box)
Excerpt: (§2) 5 Herbicidal ratio of 90% or more (almost completely withered) 4 Herbicidal ratio of 70% or more and less than 90% 3 Herbicidal ratio of 40% or more and less than 70% 2 Herbicidal ratio of 20% or more and less than 40% 1 Herbicidal ratio of 5% or more and less than 20% 0 Herbicidal ratio of 5% or less (almost no effect) [Test Example 4] Herbicidal Effect Test by Application to Foliage Sterilized diluvial soil was placed in a plastic box having a length of 21 cm, a width of 13 cm, and a depth of 7 cm. Each of the seeds of Digitaria ciliaris, Setaria viridis, Echinochloa crus-galli var. crus-galli, Avena fatua, Alopecurus myosuroides, Lolium multiflorum Lam., Apera spica-venti., Abutilon theophrasti, Amaranthus retroflexus, Chenopodium album, Stellaria media, Galium spurium, Veronica persica, Zea mays, Glycine max, Oryza sativa, Triticum aestivum, Beta vulgaris ssp. vulgaris, and Brassica campestris L. was sowed in a spot-like manner and was covered with the soil of about 1.5 cm thick. Thereafter, the plants were grown in the greenhouse of 25° C. to 30° C. After the plants were grown for 14 days, the emulsion agent containing the compound of the present invention prepared in accordance with Formulation Example 2 was diluted with water so as to be a predetermined herbicide amount and the diluted compound was uniformly applied to a stem and leaf part with a small-size spray. Three weeks after the herbicide application, effects on each plant were investigated in accordance with the criteria of Test Example 1. A: Echinochloa oryzicola Vasing., B: Scirpus juncoides, C: Monochoria vaginalis, D: Leptochloa chinensis, E: Cyperus difformis, F: Digitaria ciliaris, G: Setaria viridis, H: Echinochloa crus-galli var. crus-galli, I: Avena fatua, J: Alopecurus myosuroides, K: Lolium multiflorum Lam., L: Apera spica-venti., M: Abutilon theophrasti, N: Amaranthus retroflexus, O: Chenopodium album, P: Stellaria media, Q: Galium spurium, R: Veronica persica, a: transplanted Oryza sativa, b: directly sowed Oryza sativa, c: Zea mays, d: Glycine max, e: Triticum aestivum, f: Beta vulgaris ssp. vulgaris, and g: Brassica campestris L. The application herbicide amount (g/ha) means an amount that a concentration is adjusted so that, when an application amount is converted into per hectare (1 ha), the herbicide is applied by the number of grams (g) of the described value.

[6] = test system: Alopecurus myosuroides; test: as above
Excerpt: as §2

[7] = test system: Amaranthus retroflexus; test: as above
Excerpt: as §2

[8] = test system: Apera spica-venti.; test: as above
Excerpt: as §2

[9] = test system: Avena fatua; test: as above
Excerpt: as §2

[10] = test system: Chenopodium album; test: as above
Excerpt: as §2

[11] = test system: Digitaria ciliaris; test: as above
Excerpt: as §2

[12] = test system: Echinochloa crus-galli var. crus-galli; test: as above
Excerpt: as §2

[13] = test system: Galium spurium; test: as above
Excerpt: as §2

[14] = test system: Lolium multiflorum Lam.; test: as above
Excerpt: as §2

[15] = test system: Setaria viridis; test: as above
Excerpt: as §2

[16] = test system: Stellaria media; test: as above
Excerpt: as §2

[17] = test system: Veronica persica; test: as above
Excerpt: as §2

[18] = test system: Beta vulgaris ssp. vulgaris; test: Test Example 4: effect on crop by application to foliage (diluvial soil, plastic box)
In short: (§3)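 Read-out is a 0–5 visual grade of herbicidal ratio (5: ≥90%, almost withered; 0: ≤5%) taken three weeks after treatment. Compound was applied as a diluted emulsion to stem and leaf parts of 14-day greenhouse-grown plants (25° C. to 30° C.) at rates expressed as g/ha.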

[19] = test system: Brassica campestris L.; test: as above
In short: as §3

[20] = test system: Glycine max; test: as above
In short: as §3

[21] = test system: Triticum aestivum; test: as above
In short: as §3

[22] = test system: Zea mays; test: as above
In short: as §3

[23] = test system: directly sowed Oryza sativa; test: as above; settings: application to foliage
In short: as §3

[24] = Application herbicide amount 320 g/ha, foliage application
[25] = application to foliage, application herbicide amount 320 g/ha
[26] = application to foliage, 320 g/ha

COC(=O)CSc1nnc2c(C(=O)Nc3nnc(C)o3)ccc(C(F)(F)F)n12 [1-127]
E (herbicidal effect grade) [1]: 3 (Herbicidal ratio of 40% or more and less than 70%) | H (herbicidal effect grade) [2]: 4 (Herbicidal ratio of 70% or more and less than 90%) | D (herbicidal effect grade) [3]: 4 (Herbicidal ratio of 70% or more and less than 90%) | b (effect on crop grade) [4]: 0 (Herbicidal ratio of 5% or less (almost no effect)) | M (Abutilon theophrasti) herbicidal effect grade [5, 24]: 2 (Herbicidal ratio of 20% or more and less than 40%) | J (Alopecurus myosuroides) herbicidal effect grade [6, 24]: 0 (Herbicidal ratio of 5% or less (almost no effect)) | N (Amaranthus retroflexus) herbicidal effect grade [7, 24]: 1 (Herbicidal ratio of 5% or more and less than 20%) | L (Apera spica-venti.) herbicidal effect grade [8, 24]: 0 (Herbicidal ratio of 5% or less (almost no effect)) | I (Avena fatua) herbicidal effect grade [9, 24]: 0 (Herbicidal ratio of 5% or less (almost no effect)) | O (Chenopodium album) herbicidal effect grade [10, 24]: 5 (Herbicidal ratio of 90% or more (almost completely withered)) | F (Digitaria ciliaris) herbicidal effect grade [11, 24]: 1 (Herbicidal ratio of 5% or more and less than 20%) | H (Echinochloa crus-galli var. crus-galli) herbicidal effect grade [12, 24]: 4 (Herbicidal ratio of 70% or more and less than 90%) | Q (Galium spurium) herbicidal effect grade [13, 24]: 0 (Herbicidal ratio of 5% or less (almost no effect)) | K (Lolium multiflorum Lam.) herbicidal effect grade [14, 24]: 0 (Herbicidal ratio of 5% or less (almost no effect)) | G (Setaria viridis) herbicidal effect grade [15, 24]: 1 (Herbicidal ratio of 5% or more and less than 20%) | P (Stellaria media) herbicidal effect grade [16, 24]: 3 (Herbicidal ratio of 40% or more and less than 70%) | R (Veronica persica) herbicidal effect grade [17, 24]: 1 (Herbicidal ratio of 5% or more and less than 20%) | f (Beta vulgaris ssp. vulgaris) effect on crop grade [18, 24]: 2 (Herbicidal ratio of 20% or more and less than 40%) | g (Brassica campestris L.) effect on crop grade [19, 24]: 0 (Herbicidal ratio of 5% or less (almost no effect)) | d (Glycine max) effect on crop grade [20, 24]: 1 (Herbicidal ratio of 5% or more and less than 20%) | e (Triticum aestivum) effect on crop grade [21, 24]: 0 (Herbicidal ratio of 5% or less (almost no effect)) | c (Zea mays) effect on crop grade [22, 24]: 0 (Herbicidal ratio of 5% or less (almost no effect))

CCN(C(=O)c1ccc(C(F)(F)F)n2c(C3(C)CC3(Cl)Cl)nnc12)c1nnc(C)o1 (stereo not drawn) [1-174, 3-(2,2-Dichloro-1-methylcyclopropyl)-N-ethyl-N-(5-methyl-1,3,4-oxadiazol-2-yl)-5-(trifluoromethyl)-[1,2,4]triazolo[4,3-a]pyridine-8-carboxamide]
H (herbicidal effect grade) [2]: 2 (Herbicidal ratio of 20% or more and less than 40%) | D (herbicidal effect grade) [3]: 2 (Herbicidal ratio of 20% or more and less than 40%) | b (effect on crop grade) [4]: 0 (Herbicidal ratio of 5% or less (almost no effect)) | M: herbicidal effect on Abutilon theophrasti [5, 25]: 0 (Herbicidal ratio of 5% or less (almost no effect)) | J: herbicidal effect on Alopecurus myosuroides [6, 25]: 0 (Herbicidal ratio of 5% or less (almost no effect)) | N: herbicidal effect on Amaranthus retroflexus [7, 25]: 4 (Herbicidal ratio of 70% or more and less than 90%) | L: herbicidal effect on Apera spica-venti. [8, 25]: 0 (Herbicidal ratio of 5% or less (almost no effect)) | I: herbicidal effect on Avena fatua [9, 25]: 0 (Herbicidal ratio of 5% or less (almost no effect)) | O: herbicidal effect on Chenopodium album [10, 25]: 5 (Herbicidal ratio of 90% or more (almost completely withered)) | F: herbicidal effect on Digitaria ciliaris [11, 25]: 0 (Herbicidal ratio of 5% or less (almost no effect)) | H: herbicidal effect on Echinochloa crus-galli var. crus-galli [12, 25]: 0 (Herbicidal ratio of 5% or less (almost no effect)) | Q: herbicidal effect on Galium spurium [13, 25]: 3 (Herbicidal ratio of 40% or more and less than 70%) | K: herbicidal effect on Lolium multiflorum Lam. [14, 25]: 0 (Herbicidal ratio of 5% or less (almost no effect)) | G: herbicidal effect on Setaria viridis [15, 25]: 0 (Herbicidal ratio of 5% or less (almost no effect)) | P: herbicidal effect on Stellaria media [16, 25]: 3 (Herbicidal ratio of 40% or more and less than 70%) | R: herbicidal effect on Veronica persica [17, 25]: 3 (Herbicidal ratio of 40% or more and less than 70%) | f: effect on crop, Beta vulgaris ssp. vulgaris [18, 25]: 4 (Herbicidal ratio of 70% or more and less than 90%) | g: effect on crop, Brassica campestris L. [19, 25]: 0 (Herbicidal ratio of 5% or less (almost no effect)) | d: effect on crop, Glycine max [20, 25]: 0 (Herbicidal ratio of 5% or less (almost no effect)) | e: effect on crop, Triticum aestivum [21, 25]: 0 (Herbicidal ratio of 5% or less (almost no effect)) | c: effect on crop, Zea mays [22, 25]: 0 (Herbicidal ratio of 5% or less (almost no effect)) | b: effect on crop, directly sowed Oryza sativa ([23]; application herbicide amount 320 g/ha): 0 (Herbicidal ratio of 5% or less (almost no effect))

Cc1nonc1NC(=O)c1ccc(C(F)(F)F)n2c(SCC(C)C)nnc12 [3-002]
H (herbicidal effect grade) [2]: 0 (Herbicidal ratio of 5% or less (almost no effect)) | D (herbicidal effect grade) [3]: 3 (Herbicidal ratio of 40% or more and less than 70%) | b (effect on crop grade) [4]: 0 (Herbicidal ratio of 5% or less (almost no effect)) | herbicidal effect, M (Abutilon theophrasti) [5, 26]: 1 (Herbicidal ratio of 5% or more and less than 20%) | herbicidal effect, J (Alopecurus myosuroides) [6, 26]: 0 (Herbicidal ratio of 5% or less (almost no effect)) | herbicidal effect, N (Amaranthus retroflexus) [7, 26]: 3 (Herbicidal ratio of 40% or more and less than 70%) | herbicidal effect, L (Apera spica-venti.) [8, 26]: 0 (Herbicidal ratio of 5% or less (almost no effect)) | herbicidal effect, I (Avena fatua) [9, 26]: 0 (Herbicidal ratio of 5% or less (almost no effect)) | herbicidal effect, O (Chenopodium album) [10, 26]: 4 (Herbicidal ratio of 70% or more and less than 90%) | herbicidal effect, F (Digitaria ciliaris) [11, 26]: 0 (Herbicidal ratio of 5% or less (almost no effect)) | herbicidal effect, H (Echinochloa crus-galli var. crus-galli) [12, 26]: 0 (Herbicidal ratio of 5% or less (almost no effect)) | herbicidal effect, Q (Galium spurium) [13, 26]: 0 (Herbicidal ratio of 5% or less (almost no effect)) | herbicidal effect, K (Lolium multiflorum Lam.) [14, 26]: 0 (Herbicidal ratio of 5% or less (almost no effect)) | herbicidal effect, G (Setaria viridis) [15, 26]: 0 (Herbicidal ratio of 5% or less (almost no effect)) | herbicidal effect, P (Stellaria media) [16, 26]: 1 (Herbicidal ratio of 5% or more and less than 20%) | herbicidal effect, R (Veronica persica) [17, 26]: 0 (Herbicidal ratio of 5% or less (almost no effect)) | effect on crop, f (Beta vulgaris ssp. vulgaris) [18, 26]: 0 (Herbicidal ratio of 5% or less (almost no effect)) | effect on crop, g (Brassica campestris L.) [19, 26]: 0 (Herbicidal ratio of 5% or less (almost no effect)) | effect on crop, c (Glycine max) [20, 26]: 0 (Herbicidal ratio of 5% or less (almost no effect)) | effect on crop, e (Triticum aestivum) [21, 26]: 0 (Herbicidal ratio of 5% or less (almost no effect)) | effect on crop, b (Zea mays) [22, 26]: 0 (Herbicidal ratio of 5% or less (almost no effect)) | effect on crop, d (directly sowed Oryza sativa) ([23]; 320 g/ha): 0 (Herbicidal ratio of 5% or less (almost no effect))

From patent US9708314B2, “Heterocyclic amide compound” (NISSAN CHEMICAL INDUSTRIES, LTD., priority 2013, dated 2017)
